# Where “and” joins values, the source holds several entries; their conditions need not be identical. Equal entries are not always repeated. Where a SMILES comes first, the peptide text is derived from it. [ ]: non-standard residue; d: D form. Hyp = O=C(O)[C@@H]1C[C@@H](O)CN1
# Test system: IL-1 beta/IL-1F2
# Assay: Example 9 Luminex, LPS hPBMCs: IL-1 beta/IL-1F2
# Format: cell-based, human
# Procedure: Treatment Human PBMCs were pretreated with YY-101, YDE-011 and YDE-043 or reference compound; Xiidra® at various concentration (ranging from 1 nM to 100 uM) for 2 h before stimulation. An equal volume of 0.5% DMSO was used as a vehicle control. Then, the cells were treated with LPS at 5 ug/ml. The supernatants from treated cells were harvested at 24 h and placed in a 96 well for Luminex cytokine & chemokine profiling using a Luminex 200 multiplex assay (Luminex; R&D system, USA).
# The main study arm with triplicate wells per group in a 24-well plate: • 1. Blank • 2. PBMC: 0.5% DMSO • 3. PBMC+LPS (5 ug/ml) • 4. PBMC+YY-101 100 uM • 5. PBMC+YY-101 10 uM • 6. PBMC+YY-101 1 uM • 7. PBMC+YY-101 0.1 uM • 8. PBMC+YY-101 0.01 uM • 9. PBMC+LPS (5 ug/ml)+Xiidra®100 uM • 10. PBMC+LPS (5 ug/ml)+Xiidra® 10 uM • 11. PBMC+LPS (5 ug/ml)+Xiidra® 1 uM • 12. PBMC+LPS (5 ug/ml)+Xiidra®0.1 uM • 13. PBMC+LPS (5 ug/ml)+Xiidra®0.01 uM • 14. PBMC+LPS (5 ug/ml)+Xiidra®0.001 uM • 15. PBMC+LPS (5 ug/ml)+YY-101 100 uM • 16. PBMC+LPS (5 ug/ml)+YY-101 10 uM • 17. PBMC+LPS (5 ug/ml)+YY-101 1 uM • 18. PBMC+LPS (5 ug/ml)+YY-101 0.1 uM • 19. PBMC+LPS (5 ug/ml)+YY-101 0.01 uM • 20. PBMC+LPS (5 ug/ml)+YY-101 0.001 uM • 21. PBMC+LPS (5 ug/ml)+YDE-011 100 uM • 22. PBMC+LPS (5 ug/ml)+YDE-011 10 uM • 23. PBMC+LPS (5 ug/ml)+YDE-011 1 uM • 24. PBMC+LPS (5 ug/ml)+YDE-011 0.1 uM • 25. PBMC+LPS (5 ug/ml)+YDE-011 0.01 uM • 26. PBMC+LPS (5 ug/ml)+YDE-011 0.001 uM • 27. PBMC+LPS (5 ug/ml)+YDE-043 100 uM • 28. PBMC+LPS (5 ug/ml)+YDE-043 10 uM • 29. PBMC+LPS (5 ug/ml)+YDE-043 1 uM • 30. PBMC+LPS (5 ug/ml)+YDE-043 0.1 uM • 31. PBMC+LPS (5 ug/ml)+YDE-043 0.01 uM • 32. PBMC+LPS (5 ug/ml)+YDE-043 0.001 uM
# Multiplex assay was used to measure 30 cytokines and chemokines. The 1:2, 1:10 and 1:200 diluted cell supernatant and serial dilution of the standard were dispensed into a 96 well plate at 50 ul/well. Then, the pre-mixed cocktail of antibody-coated magnetic beads was dispensed at 50 ul/well and incubated at room temperature for 2 h in a horizontal orbital microplate shaker at 800±500 rpm. The beads were washed using a magnetic device to prevent loss. The biotin-antibody was dispensed in 50 ul of each well and incubated at room temperature for 1 h in a shaker at 800±500 rpm. After washing, streptavidin-PE was added at 50 ul/well and incubated at room temperature for 30 min in a shaker under the same conditions. Finally, after washing, wash buffer (100 ul/well) was added to the plate and incubated in a shaker for 2 min. The Luminex™ 200 setting were set according to the manufacturer's protocol. The data was calculated with a standard five-parameter logistic nonlinear regression analysis of the data (xPonent software 4.2, USA). The levels of cytokine/chemokine are normalized to the live cell counts (1×10^5 cells/mL) and presented as concentrations per mL (pg/mL or ng/mL).
# [1] = PBMC + LPS(5 ug/ml) + test article 0.001 uM, Mean
# [2] = PBMC + LPS(5 ug/ml) + test article 0.001 uM, single replicates
# [3] = PBMC + LPS(5 ug/ml) + test article 0.01 uM, Mean
# [4] = PBMC + LPS(5 ug/ml) + test article 0.01 uM, single replicates
# [5] = PBMC + LPS(5 ug/ml) + test article 0.1 uM, Mean
# [6] = PBMC + LPS(5 ug/ml) + test article 0.1 uM, single replicates
# [7] = PBMC + LPS(5 ug/ml) + test article 1 uM, Mean
# [8] = PBMC + LPS(5 ug/ml) + test article 1 uM, single replicates
# [9] = PBMC + LPS(5 ug/ml) + test article 10 uM, Mean
# [10] = PBMC + LPS(5 ug/ml) + test article 10 uM, single replicates
# [11] = PBMC + LPS(5 ug/ml) + test article 100 uM, Mean
# [12] = PBMC + LPS(5 ug/ml) + test article 100 uM, single replicates
# [13] = PBMC + test article 0.01 uM, no LPS, Mean
# [14] = PBMC + test article 0.01 uM, no LPS, single replicates
# [15] = PBMC + test article 0.1 uM, no LPS, Mean
# [16] = PBMC + test article 0.1 uM, no LPS, single replicates
# [17] = PBMC + test article 1 uM, no LPS, Mean
# [18] = PBMC + test article 1 uM, no LPS, single replicates
# [19] = PBMC + test article 10 uM, no LPS, Mean
# [20] = PBMC + test article 10 uM, no LPS, single replicates
# [21] = PBMC + test article 100 uM, no LPS, Mean
# [22] = PBMC + test article 100 uM, no LPS, single replicates
smiles,measurement,setting,value
CC(C)C[C@H](NC(=O)CNC(=O)[C@H](CC(=O)O)NC(=O)[C@H](CCC(N)=O)NC(=O)CNC(=O)[C@@H]1C[C@@H](O)CN1)C(=O)N[C@@H](C)C(=O)NCC(=O)N1CCC[C@H]1C(=O)N[C@@H](CCCCN)C(=O)O [YY-101] (H-[Hyp]GQDGLAGPK-OH; N-terminus and C-terminus assumed),Concentration,[1],7614.6 pg/mL
same,MFI,[1],1976.7
same,conc/live cell,[1],1188.6 pg/10^5
same,Concentration,[2],7907.5 pg/mL and 7935.5 pg/mL and 7000.7 pg/mL
same,MFI,[2],2055.5 and 2063.0 and 1811.5
same,conc/live cell,[2],1387.3 pg/10^5 and 1117.7 pg/10^5 and 1060.7 pg/10^5
same,Concentration,[3],8390.1 pg/mL
same,MFI,[3],2184.3
same,conc/live cell,[3],1361.7 pg/10^5
same,Concentration,[4],8405.7 pg/mL and 8552.3 pg/mL and 8212.4 pg/mL
same,MFI,[4],2188.5 and 2227.5 and 2137.0
same,conc/live cell,[4],1313.4 pg/10^5 and 1425.4 pg/10^5 and 1346.3 pg/10^5
same,Concentration,[5],8511.2 pg/mL
same,MFI,[5],2216.5
same,conc/live cell,[5],1463.1 pg/10^5
same,Concentration,[6],8266.8 pg/mL and 8740.8 pg/mL and 8526.0 pg/mL
same,MFI,[6],2151.5 and 2277.5 and 2220.5
same,conc/live cell,[6],1333.4 pg/10^5 and 1680.9 pg/10^5 and 1375.2 pg/10^5
same,Concentration,[7],7838.4 pg/mL
same,MFI,[7],2036.8
same,conc/live cell,[7],1203.9 pg/10^5
same,Concentration,[8],8218.0 pg/mL and 7821.7 pg/mL and 7475.4 pg/mL
same,MFI,[8],2138.5 and 2032.5 and 1939.5
same,conc/live cell,[8],1304.4 pg/10^5 and 1101.6 pg/10^5 and 1205.7 pg/10^5
same,Concentration,[9],8659.2 pg/mL
same,MFI,[9],2255.8
same,conc/live cell,[9],1311.5 pg/10^5
same,Concentration,[10],8518.5 pg/mL and 8816.3 pg/mL and 8642.7 pg/mL
same,MFI,[10],2218.5 and 2297.5 and 2251.5
same,conc/live cell,[10],1419.7 pg/10^5 and 1377.5 pg/10^5 and 1137.2 pg/10^5
same,Concentration,[11],12179.5 pg/mL
same,MFI,[11],3163.2
same,conc/live cell,[11],2105.8 pg/10^5
same,Concentration,[12],12944.3 pg/mL and 11783.1 pg/mL and 11811.0 pg/mL
same,MFI,[12],3353.5 and 3064.5 and 3071.5
same,conc/live cell,[12],2054.7 pg/10^5 and 1900.5 pg/10^5 and 2362.2 pg/10^5
same,Concentration,[13],5.5 pg/mL
same,MFI,[13],2.5
same,conc/live cell,[13],0.6 pg/10^5
same,Concentration,[14],5.5 pg/mL
same,MFI,[14],0.5 and 4.5
same,conc/live cell,[14],0.0 pg/10^5 and 1.2 pg/10^5
same,MFI,[15],1.5
same,conc/live cell,[15],0.0 pg/10^5
same,MFI,[16],1.5
same,conc/live cell,[16],0.0 pg/10^5
same,MFI,[17],2.0
same,conc/live cell,[17],0.0 pg/10^5
same,MFI,[18],3.5 and 0.5
same,conc/live cell,[18],0.0 pg/10^5
same,Concentration,[19],122.9 pg/mL
same,MFI,[19],13.0
same,conc/live cell,[19],9.6 pg/10^5
same,Concentration,[20],122.9 pg/mL
same,MFI,[20],23.5 and 2.5
same,conc/live cell,[20],19.2 pg/10^5 and 0.0 pg/10^5
same,Concentration,[21],159.6 pg/mL
same,MFI,[21],31.5
same,conc/live cell,[21],24.7 pg/10^5
same,Concentration,[22],278.4 pg/mL and 40.7 pg/mL
same,MFI,[22],53.5 and 9.5
same,conc/live cell,[22],43.5 pg/10^5 and 5.8 pg/10^5
same,LPS-induced IL-I3 levels (in words),"at 100.iM, LPS 5 ug/mL 24 hrs",further increased

# Reference: patent US20230146455A1, “TREATMENT OF INFLAMMATORY DISEASES WITH PEPTIDES AND PHARMACEUTICAL COMPOSITIONS” (Yuyu Pharma, Inc., priority 2020, published 2023)
